Values of other authors in patent US4039519A, “Broad spectrum antibiotics and method” (Chimie & Biologie, priority 1975, dated 1977).

Conditions: oral administration; cited from earlier work

Q: For colistine, which “passage of the gastro-intestinal barrier (known)” value is on record?
A: The value was “cannot pass the gastro-intestinal barrier”.
